According to patent publication US6355799B1, “Substituted benzene compounds, process for their preparation, and herbicidal and defoliant compositions containing them” (ISK Americas Incorporated, priority 1997, dated 2002):

Columns and labels:
Assay type in all cases: in vivo
[1] = test system: field corn (Zea mays L., var. Dekalb 535, CORN); experiment: Post-emerge test, crop safety; conditions: rating scale 0-100 (0 no damage, 100 complete death), 14 days after application
How it was run: (§1)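 Fourteen days after spraying, crop and weed injury was graded visually from 0, no effect, to 100, every plant dead. Test substances were dissolved in acetone and applied at 15–1000 g ai/ha with a flat-fan nozzle. Application was either pre-emergence, one day after sowing, or post-emergence at the 2–3 leaf stage.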

[2] = test system: upland rice (Oryza sp., var. Tebonnet, RICE); experiment: Post-emerge test, crop safety; conditions: rating scale 0-100 (0 no damage, 100 complete death), 14 days after application
How it was run: as §1

[3] = test system: redroot pigweed (Amaranthus retroflexus, AMARE); experiment: Pre-emerge test, greenhouse herbicide activity screening; conditions: rating scale 0-100, 14 days after application
How it was run: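 Compounds in acetone were track-sprayed at 15-1000 g ai/ha (187 l/ha) on sandy loam pots: pre-emerge one day after seeding, post-emerge at 2-3 leaf stage with 0.25% v/v non-ionic surfactant. Phytotoxicity was rated 14 days later on a 0 (no damage) to 100 (complete death) scale.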

[4] = test system: velvetleaf (Abutilon theophrasti, ABUTH); experiment: Post-emerge test, greenhouse herbicide activity screening; conditions: rating scale 0-100 (0 no damage, 100 complete death), 14 days after application
How it was run: (§2)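 Compounds in acetone were track-sprayed at 187 l/ha, 15–1000 g ai/ha, onto sandy loam pots. Pre-emerge seeds were sown one day before spraying, with surface watering afterwards. Post-emerge plants were at the 2–3 leaf stage and sprayed with 0.25% v/v non-ionic surfactant. Injury was rated 0–100 at 14 days.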

[5] = test system: sicklepod (Cassia obtusifolia, CASOB); experiment: as above; conditions: rating scale 0-100 (0 no damage, 100 complete death), 14 days after application
How it was run: as §2

[6] = test system: lambsquarters (Chenopodium album, CHEAL); experiment: as above; conditions: rating scale 0-100 (0 no damage, 100 complete death), 14 days after application
How it was run: as §2

[7] = test system: ivyleaf morningglory (Ipomoea hederacea, IPOHE); experiment: as above; conditions: rating scale 0-100 (0 no damage, 100 complete death), 14 days after application
How it was run: as §2

[8] = test system: green foxtail (Setaria viridis, SETVI); experiment: as above; conditions: rating scale 0-100 (0 no damage, 100 complete death), 14 days after application
How it was run: as §2

[9] = test system: large crabgrass (Digitaria sanguinalis, DIGSA); experiment: as above; conditions: rating scale 0-100 (0 no damage, 100 complete death), 14 days after application
How it was run: as §2

[10] = test system: barnyardgrass (Echinochloa crus-galli, ECHCG); experiment: as above; conditions: rating scale 0-100 (0 no damage, 100 complete death), 14 days after application
How it was run: as §2

[11] = test system: common ragweed (Ambrosia artemisizfolia L., AMBEL); experiment: as above; conditions: rating scale 0-100 (0 no damage, 100 complete death), 14 days after application
How it was run: as §2

[12] = test system: johnsongrass (Sorghum halepense, SORHA); experiment: as above; conditions: rating scale 0-100 (0 no damage, 100 complete death), 14 days after application
How it was run: as §2

[13] = test system: redroot pigweed (Amaranthus retroflexus, AMARE); experiment: as above; conditions: rating scale 0-100 (0 no damage, 100 complete death), 14 days after application
How it was run: as §2

[14] = test system: velvetleaf (Abutilon theophrasti, ABUTH); experiment: Pre-emerge test, greenhouse herbicide activity screening; conditions: rating scale 0-100, 14 days after application
How it was run: as §1

[15] = test system: sicklepod (Cassia obtusifolia, CASOB); experiment: as above; conditions: rating scale 0-100, 14 days after application
How it was run: as §1

[16] = test system: lambsquarters (Chenopodium album, CHEAL); experiment: as above; conditions: rating scale 0-100, 14 days after application
How it was run: as §1

[17] = test system: ivyleaf morningglory (Ipomoea hederacea, IPOHE); experiment: as above; conditions: rating scale 0-100, 14 days after application
How it was run: as §1

[18] = test system: green foxtail (Setaria viridis, SETVI); experiment: as above; conditions: rating scale 0-100, 14 days after application
How it was run: as §1

[19] = test system: large crabgrass (Digitaria sanguinalis, DIGSA); experiment: as above; conditions: rating scale 0-100, 14 days after application
How it was run: as §1

[20] = test system: barnyardgrass (Echinochloa crus-galli, ECHCG); experiment: as above; conditions: rating scale 0-100, 14 days after application
How it was run: as §1

[21] = test system: common ragweed (Ambrosia artemisizfolia L., AMBEL); experiment: as above; conditions: rating scale 0-100, 14 days after application
How it was run: as §1

[22] = test system: johnsongrass (Sorghum halepense, SORHA); experiment: as above; conditions: rating scale 0-100, 14 days after application
How it was run: as §1

[23] = test system: field corn (Zea mays L., var. Dekalb 535, CORN); experiment: Pre-emerge test, crop safety; conditions: rating scale 0-100, 14 days after application
How it was run: (§3)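 Sandy loam pots; pre-emerge: sown 1 d pre-spray, surface-watered after, then bottom-watered. Post-emerge: sown 8–21 d before, 2–3 leaf stage, + 0.25% v/v NIS, bottom-watered. Acetone, 187 l/ha track spray, 15–1000 g ai/ha. 0–100 injury score, day 14.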

[24] = test system: upland rice (Oryza sp., var. Tebonnet, RICE); experiment: Pre-emerge test, crop safety; conditions: rating scale 0-100, 14 days after application
How it was run: as §3

CCCCOC(=O)C(C)(Cl)Cc1c(OC)c(Cl)cc(F)c1-n1c(=O)cc(C(F)(F)F)n(C)c1=O (stereo not drawn) [14-36]
99: Post-emerge Herbicidal Activity, phytotoxicity rating CHEAL ([6]; Rate 63 g ai/ha) | Post-emerge Herbicidal Activity, phytotoxicity rating SETVI ([8]; Rate 250 g ai/ha) | Post-emerge Herbicidal Activity, phytotoxicity rating ECHCG ([10]; Rate 63 g ai/ha)
35: Post-emerge phytotoxicity rating RICE (crop damage) ([2]; Rate 63 g ai/ha)
10: Pre-emerge herbicidal activity, phytotoxicity rating SETVI ([18]; 63 g ai/ha) | Pre-emerge herbicidal activity, phytotoxicity rating AMBEL ([21]; 63 g ai/ha) | Pre-emerge phytotoxicity rating, crop damage CORN ([23]; 250 g ai/ha) | Pre-emerge phytotoxicity rating, crop damage RICE ([24]; 63 g ai/ha)
20: Post-emerge Herbicidal Activity, phytotoxicity rating CASOB ([5]; Rate 63 g ai/ha) | Post-emerge Herbicidal Activity, phytotoxicity rating SORHA ([12]; Rate 63 g ai/ha)
100: Pre-emerge herbicidal activity, phytotoxicity rating AMARE ([3]; 250 g ai/ha) | Post-emerge Herbicidal Activity, phytotoxicity rating ABUTH ([4]; Rate 250 g ai/ha) | Post-emerge Herbicidal Activity, phytotoxicity rating CHEAL ([6]; Rate 250 g ai/ha) | Post-emerge Herbicidal Activity, phytotoxicity rating ECHCG ([10]; Rate 250 g ai/ha) | Post-emerge Herbicidal Activity, phytotoxicity rating AMBEL ([11]; Rate 63 g ai/ha) | Post-emerge Herbicidal Activity, phytotoxicity rating AMARE ([13]; Rate 63 g ai/ha) | Post-emerge Herbicidal Activity, phytotoxicity rating AMARE ([13]; Rate 250 g ai/ha) | Pre-emerge herbicidal activity, phytotoxicity rating ABUTH ([14]; 63 g ai/ha) | Pre-emerge herbicidal activity, phytotoxicity rating ABUTH ([14]; 250 g ai/ha) | Pre-emerge herbicidal activity, phytotoxicity rating CHEAL ([16]; 250 g ai/ha)
85: Post-emerge Herbicidal Activity, phytotoxicity rating SETVI ([8]; Rate 63 g ai/ha)
90: Pre-emerge herbicidal activity, phytotoxicity rating ECHCG ([20]; 250 g ai/ha)
65: Post-emerge Herbicidal Activity, phytotoxicity rating DIGSA ([9]; Rate 250 g ai/ha)
40: Post-emerge Herbicidal Activity, phytotoxicity rating CASOB ([5]; Rate 250 g ai/ha) | Post-emerge Herbicidal Activity, phytotoxicity rating DIGSA ([9]; Rate 63 g ai/ha) | Post-emerge Herbicidal Activity, phytotoxicity rating SORHA ([12]; Rate 250 g ai/ha)
75: Pre-emerge herbicidal activity, phytotoxicity rating AMARE ([3]; 63 g ai/ha) | Pre-emerge herbicidal activity, phytotoxicity rating CHEAL ([16]; 63 g ai/ha)
0: Pre-emerge herbicidal activity, phytotoxicity rating CASOB ([15]; 63 g ai/ha) | Pre-emerge herbicidal activity, phytotoxicity rating CASOB ([15]; 250 g ai/ha) | Pre-emerge herbicidal activity, phytotoxicity rating IPOHE ([17]; 63 g ai/ha) | Pre-emerge herbicidal activity, phytotoxicity rating IPOHE ([17]; 250 g ai/ha) | Pre-emerge herbicidal activity, phytotoxicity rating ECHCG ([20]; 63 g ai/ha) | Pre-emerge herbicidal activity, phytotoxicity rating SORHA ([22]; 63 g ai/ha) | Pre-emerge phytotoxicity rating, crop damage CORN ([23]; 63 g ai/ha)
80: Pre-emerge herbicidal activity, phytotoxicity rating AMBEL ([21]; 250 g ai/ha)
30: Post-emerge Herbicidal Activity, phytotoxicity rating IPOHE ([7]; Rate 63 g ai/ha) | Pre-emerge herbicidal activity, phytotoxicity rating DIGSA ([19]; 63 g ai/ha) | Pre-emerge herbicidal activity, phytotoxicity rating SORHA ([22]; 250 g ai/ha)
60: Post-emerge phytotoxicity rating RICE (crop damage) ([2]; Rate 250 g ai/ha)
95: Post-emerge phytotoxicity rating CORN (crop damage) ([1]; Rate 63 g ai/ha) | Post-emerge phytotoxicity rating CORN (crop damage) ([1]; Rate 250 g ai/ha) | Post-emerge Herbicidal Activity, phytotoxicity rating ABUTH ([4]; Rate 63 g ai/ha) | Post-emerge Herbicidal Activity, phytotoxicity rating AMBEL ([11]; Rate 250 g ai/ha) | Pre-emerge herbicidal activity, phytotoxicity rating SETVI ([18]; 250 g ai/ha) | Pre-emerge herbicidal activity, phytotoxicity rating DIGSA ([19]; 250 g ai/ha)
70: Post-emerge Herbicidal Activity, phytotoxicity rating IPOHE ([7]; Rate 250 g ai/ha) | Pre-emerge phytotoxicity rating, crop damage RICE ([24]; 250 g ai/ha)
